Results reported in patent US20260345458A1, “Pharmaceutical, Dermatological or Cosmetic Compounds and Compositions for Reducing Melanin Synthesis, Stimulating Type I Collagen Production, Skin Depigmentation and/or Promoting a Skin Anti-Aging Effect in an Individual or Animal, Uses and Methods” (Chemyunion Ltda, priority 2022, published 2026).
Where a SMILES comes first, the peptide text is derived from it. The star is where a group is joined. Palmitoyl = CCCCCCCCCCCCCCCC(=O)*

Key:
melanin synthesis = conditions: as reported in prior patent documents; cited from earlier work
[1] = tested on: type I collagen in human skin fragments; assay: Collagen synthesis stimulation in human skin fragments (ex vivo explants, immunofluorescence); assay type: cell-based; conditions: 72 h, ex vivo human skin explants (n=5), vs placebo, **p<0.01 (FIG. 3)
Source text: (§1) FIG. 3. Semi-quantification of type I collagen levels. Data obtained by recording images of histological sections of human skin fragments previously treated with a formulation without active ingredient (Placebo) and treated with the same formulation containing the peptide SEQ ID No. 1 (Pal-Gln-His-Trp-Val-OH) (at 50 ppm or 100 ppm). **p<0.01 compared to the placebo group.
FIG. 4. Representative images of the effect of peptide SEQ ID No. 1 (Pal-Gln-His-Trp-Val-OH) on the synthesis of type I collagen in ex vivo skin fragments-immunofluorescence (400× magnification).
Example 2: Evaluation of Collagen Synthesis Stimulation in Human Skin Fragments
Skin explants (n=5) obtained from a surgical procedure performed by the ophthalmologic plastic surgery clinic were treated for 72 h with a formulation containing the peptide SEQ ID No. 1 (Pal-Gln-His-Trp-Val-OH) (at 50 ppm or 100 ppm) and with the same formulation without the addition of the peptide (placebo). After incubation with the test products as described above, the skin fragments were fixed in 4% paraformaldehyde (pH 7.4) for 24 h. […] The skin sections were then subjected to the specific labeling process for type I collagen for subsequent immunofluorescence analysis; the records were obtained using a fluorescence optical microscope coupled to a photographic camera.

[2] = tested on: melanin synthesis in human skin fragments; assay: Inhibition of melanin synthesis in human skin fragments (ex vivo explants, Fontana Masson staining); assay type: cell-based; conditions: 50 ppm; 72 h; ex vivo human skin explants (n=5); vs placebo; **p<0.01 (FIG. 1)
Source text: as §1, with “1:” for “3.”, “melanin pigment” for “type I collagen”
FIG. 2: Representative images of the effect of peptide SEQ ID No. 1 (Pal-Gln-His-Trp-Val-OH) on melanin synthesis in ex vivo skin fragments-Fontana Masson staining (400× magnification).
Example 1: Evaluation of Inhibition of Melanin Synthesis in Human Skin Fragments
Skin explants (n=5), obtained from a surgical procedure performed by an ophthalmological plastic surgery clinic, were treated for 72 h with a formulation containing the peptide SEQ ID No. 1 (Pal-Gln-His-Trp-Val-OH), (at 50 ppm or 100 ppm) and with the same formulation without the addition of the peptide (placebo).
After incubation with the test products as described above, the skin fragments were fixed in 4% paraformaldehyde (pH 7.4) for 24 hours. […]
Subsequently, the slides were analyzed and recorded using an optical microscope coupled to a camera.

rats = conditions: cited from earlier work
skin = conditions: cited from earlier work; for ochronosis: skin becomes more pigmented than at the beginning of treatment

**Q.** For `CCCCCCCCCCCCCCCC(=O)N[C@@H](Cc1ccc(O)cc1)C(=O)N[C@@H](Cc1ccc(O)cc1)C(=O)N[C@@H](CCSC)C(N)=O` [Pal-TyrTyrMet-NH2] (Palmitoyl-Tyr-Tyr-Met-NH2), which “activity on melanin synthesis / skin lightening” value (melanin synthesis) is on record?
**A.** stimulating melanin synthesis

**Q.** What does the source list for `CCCCCCCCCCCCCCCC(=O)N[C@@H](CCC(N)=O)C(=O)N[C@@H](Cc1c[nH]cn1)C(=O)N[C@@H](Cc1c[nH]c2ccccc12)C(=O)N[C@H](C(=O)O)C(C)C` [SEQ ID No. 1, Pal-Gln-His-Trp-Val-OH] (Palmitoyl-QHWV-OH)?
**A.** stimulation of collagen I production compared to the placebo group ([1]; 50 ppm): 63%; increase in protein (type I collagen) synthesis compared to the placebo group ([1]; 100 ppm): 71%; reduction of melanin production compared to the placebo group [2]: 66%

**Q.** For `O=c1cc(CO)occ1O` [Kojic acid], which promotion of cancer (rats) is on record?
**A.** has been found to promote the development of liver and thyroid cancer in rats

**Q.** Which ochronosis (skin) does the source give for `OC[C@H]1O[C@@H](Oc2ccc(O)cc2)[C@H](O)[C@@H](O)[C@@H]1O` [arbutin] here?
**A.** can cause ochronosis

**Q.** For Caffeoyl-GlnHisGlyVal-OH, which “activity on melanin synthesis / skin lightening” value (melanin synthesis) is on record?
**A.** has skin lightening activity due to its anti-inflammatory activity

**Q.** With `Oc1ccc(O)cc1` [hydroquinone] as the compound, how does the ochronosis (skin) read?
**A.** can cause ochronosis

**Q.** And the “effect on extracellular matrix fibers, adrenal glands, thyroid physiology and skin firmness” value (skin; topical application, studies suggest)?
**A.** can disrupt the fibers of the extracellular matrix (especially collagen and elastin), leading to changes in the adrenal glands and thyroid physiology, as well as loss of skin firmness
